This note sets out measurements from patent US4263325A, “β-Receptor blocking compounds and treatment of cardiovascular disorders therewith” (priority 1979, dated 1981).

T2 sequence (Q9TST5 whole entry, the tested form may be a part): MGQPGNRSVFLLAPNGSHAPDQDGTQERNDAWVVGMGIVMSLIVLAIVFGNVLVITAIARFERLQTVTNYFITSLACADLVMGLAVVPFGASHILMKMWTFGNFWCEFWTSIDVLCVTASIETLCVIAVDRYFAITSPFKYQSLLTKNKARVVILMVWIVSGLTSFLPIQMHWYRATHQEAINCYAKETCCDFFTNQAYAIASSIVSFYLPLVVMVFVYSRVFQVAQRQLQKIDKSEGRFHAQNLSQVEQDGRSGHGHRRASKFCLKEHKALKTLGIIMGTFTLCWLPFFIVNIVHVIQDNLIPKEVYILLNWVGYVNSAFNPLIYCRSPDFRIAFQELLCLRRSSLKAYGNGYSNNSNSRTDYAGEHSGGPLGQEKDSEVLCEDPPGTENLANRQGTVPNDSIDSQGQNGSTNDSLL
T1 sequence (Q9TST6 whole entry): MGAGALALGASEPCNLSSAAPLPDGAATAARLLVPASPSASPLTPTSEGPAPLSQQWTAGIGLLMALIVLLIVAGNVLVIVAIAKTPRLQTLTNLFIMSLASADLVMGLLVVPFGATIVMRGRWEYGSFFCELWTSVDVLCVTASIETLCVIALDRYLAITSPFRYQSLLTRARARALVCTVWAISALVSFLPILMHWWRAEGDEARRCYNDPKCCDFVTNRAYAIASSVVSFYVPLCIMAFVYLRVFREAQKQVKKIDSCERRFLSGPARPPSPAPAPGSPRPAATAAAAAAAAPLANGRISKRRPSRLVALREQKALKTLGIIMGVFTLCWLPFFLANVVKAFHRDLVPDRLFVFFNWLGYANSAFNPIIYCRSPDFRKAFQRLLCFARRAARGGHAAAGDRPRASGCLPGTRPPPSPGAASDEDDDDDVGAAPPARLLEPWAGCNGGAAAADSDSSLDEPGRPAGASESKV

The first test addresses T1, cardiac β-receptors (Felis catus, UniProt Q9TST6).
T1 construct: All compounds were thereby tested in anaeshtetized cats; from tissue; host or cells: heart of the living, reserpinized, anaesthetized cat
The test is described as follows: β-blockade of isoprenaline heart rate response, reserpinized anaesthetized cat. The test is classed as in vivo. The conditions noted are these: iv, i.v. test compound, isoproterenol 0.1 μg/kg i.v., dose reducing response to 50 percent. How it is done: (§1) The agents of the present invention were tested as regards their biological properties. All compounds were thereby tested in anaeshtetized cats (males and females weighing 2.5-3.5 kg) pretreated with reserpine (5 mg/kg body-weight administered intramusculary) about 16 hours before the experiments. The animals were pretreated with reserpine in order to eliminate the endogenous sympathetic control of heart rate and vascular smooth muscle tone. The cats were anaesthetized with pentobarbital (30 mg/kg bodyweight administered i.p. ) and artificially ventilated with room air. A bilateral vagotomy was performed in the neck. Blood pressure was obtained from a cannulated carotid artery and heart rate was registered from a cardiotachometer, triggered by the electrocardiogram (ECG). Vascular resistance in one hind leg was recorded by an autoperfusion technique. Intrinsic beta mimetic activity on the heart was seen as increased heart rate after drug administration. The test compounds were given intravenously in logarithmically increasing doses. Before the first dose and between each of the following doses (0.012-51.2 μmol/kg) of the test compound a dose of isoproterenol (0.1 μg/kg) was injected intravenously. Blockade of the heart rate and vascular resistance response to isoproterenol was calculated for each dose and expressed as percent decrease of the response obtained when isoproterenol was injected before any dose of the test compound. Percent blockade was then plotted against the logarithm of the dose. ED50 values i.e. doses producing a reduction of the original response to isoproterenol to 50 percent were estimated from these dose-response curves. At the end of each experiment high doses of isoprenaline were given in order to obtain the maximal heart rate response.
Take `CCCc1ccccc1OCC(O)CNCCOc1ccc(O)cc1` (centres unmarked) [C3H7; pOH, 3-[2-(4-hydroxyphenoxy)-ethylamino]-1-o-propylphenoxy-propanol-2]: the median effective dose (ED50) (commonly the dose at which the effect has come halfway, by size or by number of responders) came out at 0.02 µmol/kg.
The molecule `COc1ccccc1OCCNCC(O)COc1ccccc1C` (centres unmarked) [CH3; 2-OCH3, 3-[2-(2methoxyphenoxy)-ethylamino]-1-o-methylphenoxy-propanol-2] registered an ED50 of 4.5 µmol/kg.
For the molecule `Cc1ccccc1OCC(O)CNCCOc1ccccc1O` (centres unmarked) [CH3; 2-OH, 3-[2-(2-hydroxyphenoxy)-ethylamino]-1-o-methylphenoxy-propanol-2], it took a dose of 0.6 µmol/kg to reach the 50% effect level (ED50).
`COc1ccc(OCCNCC(O)COc2ccccc2C)cc1OC` (centres unmarked) [CH3; 3,4-diOCH3, 3-[2-(3,4-dimethoxyphenoxy)-ethylamino]-1-o-methylphenoxy-propanol-2] yielded an ED50 of 1.5 µmol/kg.
The same measure, in the same setting: the figure for `COc1ccc(OCCNCC(O)COc2ccccc2C)cc1` (centres unmarked) [CH3; 4-OCH3, 3-[2-(4-methoxyphenoxy)-ethylamino]-1-o-methylphenoxy-propanol-2] is 0.5 µmol/kg; for `OCc1ccccc1OCC(O)CNCCOc1ccc(O)cc1` (centres unmarked) [HOCH2; pOH, 3-[2-(4-hydroxyphenoxy)-ethylamino]-1-o-hydroxymethylphenoxy-propanol-2] it is 0.02 µmol/kg.

Another test concerns the target T2, vascular β-receptors (Felis catus, UniProt Q9TST5).
T2 construct: All compounds were thereby tested in anaeshtetized cats; from tissue; host or cells: hind-leg vasculature of the living, reserpinized, anaesthetized cat (autoperfused)
The test is described as follows: β-blockade of isoprenaline peripheral (vascular) resistance response, reserpinized anaesthetized cat, autoperfused hind leg. The test is classed as in vivo. The conditions noted are these: iv, i.v. test compound, isoproterenol 0.1 μg/kg i.v., dose reducing response to 50 percent. How it is done: as §1
`CCCc1ccccc1OCC(O)CNCCOc1ccc(O)cc1` (centres unmarked) [C3H7; pOH, 3-[2-(4-hydroxyphenoxy)-ethylamino]-1-o-propylphenoxy-propanol-2] displayed an ED50 of 0.02 µmol/kg.
`COc1ccccc1OCCNCC(O)COc1ccccc1C` (centres unmarked) [CH3; 2-OCH3, 3-[2-(2methoxyphenoxy)-ethylamino]-1-o-methylphenoxy-propanol-2] returned an ED50 of 11 µmol/kg.
`Cc1ccccc1OCC(O)CNCCOc1ccccc1O` (centres unmarked) [CH3; 2-OH, 3-[2-(2-hydroxyphenoxy)-ethylamino]-1-o-methylphenoxy-propanol-2] gave an ED50 of 17 µmol/kg.
Same read-out and setting: the value for `COc1ccc(OCCNCC(O)COc2ccccc2C)cc1OC` (centres unmarked) [CH3; 3,4-diOCH3, 3-[2-(3,4-dimethoxyphenoxy)-ethylamino]-1-o-methylphenoxy-propanol-2] was 5.8 µmol/kg.
Molecule `COc1ccc(OCCNCC(O)COc2ccccc2C)cc1` (centres unmarked) [CH3; 4-OCH3, 3-[2-(4-methoxyphenoxy)-ethylamino]-1-o-methylphenoxy-propanol-2] gave an ED50 of 8.2 µmol/kg.
Same read-out and setting: the value for `OCc1ccccc1OCC(O)CNCCOc1ccc(O)cc1` (centres unmarked) [HOCH2; pOH, 3-[2-(4-hydroxyphenoxy)-ethylamino]-1-o-hydroxymethylphenoxy-propanol-2] was 0.05 µmol/kg.

The next test concerns the target T1, cardiac β-receptors. The test is described as follows: Intrinsic beta mimetic activity on the heart (increase of heart rate), reserpinized anaesthetized cat. The conditions noted are these: i.v., increase of heart rate after drug. The test is classed as in vivo. How it is done: as §1
`CCCc1ccccc1OCC(O)CNCCOc1ccc(O)cc1` (centres unmarked) [C3H7; pOH, 3-[2-(4-hydroxyphenoxy)-ethylamino]-1-o-propylphenoxy-propanol-2]: the “Intrinsic activity Δbeats/min” value came out at 0 beats/min.
Still for that read-out and setting: the figure for `COc1ccccc1OCCNCC(O)COc1ccccc1C` (centres unmarked) [CH3; 2-OCH3, 3-[2-(2methoxyphenoxy)-ethylamino]-1-o-methylphenoxy-propanol-2] is 8 beats/min; for `Cc1ccccc1OCC(O)CNCCOc1ccccc1O` (centres unmarked) [CH3; 2-OH, 3-[2-(2-hydroxyphenoxy)-ethylamino]-1-o-methylphenoxy-propanol-2] it is 30 beats/min.
`COc1ccc(OCCNCC(O)COc2ccccc2C)cc1OC` (centres unmarked) [CH3; 3,4-diOCH3, 3-[2-(3,4-dimethoxyphenoxy)-ethylamino]-1-o-methylphenoxy-propanol-2]: the “Intrinsic activity Δbeats/min” value was determined as 8 beats/min.
Regarding `COc1ccc(OCCNCC(O)COc2ccccc2C)cc1` (centres unmarked) [CH3; 4-OCH3, 3-[2-(4-methoxyphenoxy)-ethylamino]-1-o-methylphenoxy-propanol-2], the “Intrinsic activity Δbeats/min” value was found to be 17 beats/min.
Still for that read-out and setting: the figure for `OCc1ccccc1OCC(O)CNCCOc1ccc(O)cc1` (centres unmarked) [HOCH2; pOH, 3-[2-(4-hydroxyphenoxy)-ethylamino]-1-o-hydroxymethylphenoxy-propanol-2] is 17 beats/min.

The same test, now with this note: i.v., maximal heart rate response obtained with high doses of isoprenaline.
For `CCCc1ccccc1OCC(O)CNCCOc1ccc(O)cc1` (centres unmarked) [C3H7; pOH, 3-[2-(4-hydroxyphenoxy)-ethylamino]-1-o-propylphenoxy-propanol-2], the “Intrinsic activity % of isoprenaline” value is on record as 0 % of isoprenaline.
Same read-out and setting: the figure for `COc1ccccc1OCCNCC(O)COc1ccccc1C` (centres unmarked) [CH3; 2-OCH3, 3-[2-(2methoxyphenoxy)-ethylamino]-1-o-methylphenoxy-propanol-2] is 8 % of isoprenaline.
For the molecule `Cc1ccccc1OCC(O)CNCCOc1ccccc1O` (centres unmarked) [CH3; 2-OH, 3-[2-(2-hydroxyphenoxy)-ethylamino]-1-o-methylphenoxy-propanol-2], the “Intrinsic activity % of isoprenaline” value is on record as 29 % of isoprenaline.
Same read-out and setting: the value for `COc1ccc(OCCNCC(O)COc2ccccc2C)cc1OC` (centres unmarked) [CH3; 3,4-diOCH3, 3-[2-(3,4-dimethoxyphenoxy)-ethylamino]-1-o-methylphenoxy-propanol-2] was 11 % of isoprenaline; that for `COc1ccc(OCCNCC(O)COc2ccccc2C)cc1` (centres unmarked) [CH3; 4-OCH3, 3-[2-(4-methoxyphenoxy)-ethylamino]-1-o-methylphenoxy-propanol-2] was 22 % of isoprenaline.

The next test addresses T3, α-receptors (Rattus norvegicus, UniProt P43140).
T3 construct: from tissue; host or cells: isolated rat vas deferens
T3 sequence (P43140 1-466): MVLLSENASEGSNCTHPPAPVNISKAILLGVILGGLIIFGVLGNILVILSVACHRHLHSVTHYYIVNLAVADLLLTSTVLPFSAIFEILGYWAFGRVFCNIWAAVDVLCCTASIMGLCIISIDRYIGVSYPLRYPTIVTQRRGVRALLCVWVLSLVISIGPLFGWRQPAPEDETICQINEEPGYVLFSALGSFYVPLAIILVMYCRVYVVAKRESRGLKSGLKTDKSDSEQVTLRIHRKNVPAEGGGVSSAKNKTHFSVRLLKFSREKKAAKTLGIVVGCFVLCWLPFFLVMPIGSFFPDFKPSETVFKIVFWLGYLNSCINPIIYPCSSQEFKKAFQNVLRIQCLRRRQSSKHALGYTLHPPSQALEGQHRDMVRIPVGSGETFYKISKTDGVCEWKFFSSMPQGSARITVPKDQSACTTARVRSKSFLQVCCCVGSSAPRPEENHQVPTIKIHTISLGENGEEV
The test is described as follows: α-receptor blocking activity in isolated rat vas deferens (inhibition of noradrenaline contraction). The conditions noted are these: noradrenaline as agonist, high pA2 = high α-receptor blocking activity. How it is done: α-receptor blocking activity was tested in isolated rat vas deferens. Noradrenaline administered to the organ bath induces a contraction in vas deferens by activating α-receptors. The ability of the test compounds to inhibit this noradrenaline response was studied. The α-receptor blocking activity was expressed as pA2 values. pA2 is defined as the negative logarithm of the concentration of an antagonist (in our case the test compounds) which leads to the fact that the dose of the agonist (in our case noradrenaline) has to be doubled in order to obtain the same effect of the agonist as that obtained without the antagonist present. Thus a high pA2 value indicates a high α-receptor blocking activity of a compound.
For the molecule `CCCc1ccccc1OCC(O)CNCCOc1ccc(O)cc1` (centres unmarked) [C3H7; pOH, 3-[2-(4-hydroxyphenoxy)-ethylamino]-1-o-propylphenoxy-propanol-2], the Kb was 0.126 µM.
Still for that read-out and setting: the figure for `COc1ccccc1OCCNCC(O)COc1ccccc1C` (centres unmarked) [CH3; 2-OCH3, 3-[2-(2methoxyphenoxy)-ethylamino]-1-o-methylphenoxy-propanol-2] is 0.1 µM; for `Cc1ccccc1OCC(O)CNCCOc1ccccc1O` (centres unmarked) [CH3; 2-OH, 3-[2-(2-hydroxyphenoxy)-ethylamino]-1-o-methylphenoxy-propanol-2] it is 1 µM.
Still for that read-out and setting: the value for `COc1ccc(OCCNCC(O)COc2ccccc2C)cc1OC` (centres unmarked) [CH3; 3,4-diOCH3, 3-[2-(3,4-dimethoxyphenoxy)-ethylamino]-1-o-methylphenoxy-propanol-2] was 1 µM; that for `COc1ccc(OCCNCC(O)COc2ccccc2C)cc1` (centres unmarked) [CH3; 4-OCH3, 3-[2-(4-methoxyphenoxy)-ethylamino]-1-o-methylphenoxy-propanol-2] was 1.58 µM.
`OCc1ccccc1OCC(O)CNCCOc1ccc(O)cc1` (centres unmarked) [HOCH2; pOH, 3-[2-(4-hydroxyphenoxy)-ethylamino]-1-o-hydroxymethylphenoxy-propanol-2] had a Kb of 0.501 µM.
